Reference: patent US20120122776A1, “DPP-IV INHIBITORS FOR TREATMENT OF DIABETES IN PEDIATRIC PATIENTS” (BOEHRINGER INGELHEIM INTERNATIONAL GMBH, priority 2009, published 2012)
Blank lines part the entries; values can stand above or below the molecule they belong to.

Assays:
[1] = Safety (adverse events, hypoglycaemia) in the 12-week add-on to metformin study; assay type: in vivo, human; settings: 12 weeks
Excerpt: In total, 106 patients (43.1%) experienced adverse events (AEs) with similar incidences across all treatments. Most frequently reported episodes were nasopharyngitis (7.5%), diarrhoea (3.3%), and nausea (3.0%). […] Ten patients (3.7%) experienced serious AEs but none of these events were considered drug-related.
The addition of BI 1356 to MET in patients with T2DM inadequately controlled on MET alone achieved clinically relevant and statistically significant reductions in HbA1c.

clinical = settings: human; for Cmax / Tmax / AUC(0-t): plasma; for CL renal: urine
[2] = Plasma concentration after single oral administration in the thorough QT study; assay type: in vivo, human; settings: for maximum gMean concentration after single oral administration: healthy subjects
Description: Forty-four subjects were enrolled, 26 (59.1%) of whom were male. The mean age was 36.4 years (range 22 to 48 years). The maximum gMean concentration after single oral administration was 7.05 nM (28.5% gCV) for 5 mg BI 1356, and 267 nM (66.6% gCV) for 100 mg BI 1356.

[3] = 12-week randomized, double-blind add-on to metformin study in inadequately controlled adult type 2 diabetic patients: HbA1c and FPG; settings: for placebo corrected mean reduction in HbA1c: 12 weeks
Description: Effects were compared to add-on of placebo (PBO) or of open label glimepiride (GLIM; 1 to 3 mg qd) in a 12-week randomized, double-blind study.
The primary endpoint was change from baseline in HbA1c, adjusted for prior antidiabetic medication.

[4] = Pharmacokinetics of BI 1356, multiple oral doses once daily for 12 days in adult patients with type 2 diabetes; settings: for fe0-24: fraction excreted in urine; for AUCT,ss / T1/2,ss / feT,ss / tmax,ss* / Cmax: steady state (Day 12); for tmax,ss*: median; for Cmax: read-out: Cmax,ss
[5] = Safety and tolerability in people with type 2 diabetes
[6] = 2 h postprandial blood glucose excursions, multiple oral dose study in adult patients with type 2 diabetes; assay type: in vivo, human; settings: already on Day 1; in doses 2.5 mg
Excerpt: […]. […] […].

[7] = gMean, 1 mg once daily oral for 12 days
[8] = gMean, 2.5 mg once daily oral for 12 days
[9] = gMean, 5 mg once daily oral for 12 days
[10] = gMean, 10 mg once daily oral for 12 days

excretion via the kidney (therapeutic oral dose levels): < 7 % of the administered oral dose
main excretion organ (therapeutic oral dose levels): mainly excreted via the liver
Cmax (clinical; po, 1 mg): 3.13 nM
Tmax (clinical; po, 1 mg): 1.5 h
AUC(0-t) (clinical; po, 2.5 mg): 0.0853 µM·h
Cmax (clinical; po, 2.5 mg): 5.25 nM
Tmax (clinical; po, 2.5 mg): 2 h
AUC(0-t) (clinical; po, 5 mg): 0.118 µM·h
Cmax (clinical; po, 5 mg): 8.32 nM
Tmax (clinical; po, 5 mg): 1.75 h
AUC(0-t) (clinical; po, 10 mg): 0.161 µM·h
Cmax (clinical; po, 10 mg): 9.69 nM
Tmax (clinical; po, 10 mg): 2 h
CL renal (clinical; oral, 5 mg): ~70 mL/min
CL renal (clinical; po): 14 to 70 mL/min
mean accumulation ratio RA,AUC ([4]; doses above 1 mg, once daily for 12 days): ≤ 1.4
AUC0-24 [4, 7]: 40.2 nmol·h/L
Accumulation t1/2, [4, 7]: 23.9 h
Accumulation t1/2, [4, 8]: 12.5 h
Accumulation t1/2, [4, 9]: 11.4 h
Accumulation t1/2, [4, 10]: 8.59 h
fe0-24 [4, 8]: 0.139%
fe0-24 [4, 9]: 0.453%
fe0-24 [4, 10]: 0.919%
AUCT,ss ([4]; gMean, 1 mg once daily oral): 81.7 nmol·h/L
T1/2,ss ([4]; gMean, 1 mg once daily oral): 121 h
feT,ss ([4]; gMean, 1 mg once daily oral): 3.34%
AUCT,ss ([4]; gMean, 2.5 mg once daily oral): 117 nmol·h/L
T1/2,ss ([4]; gMean, 2.5 mg once daily oral): 113 h
feT,ss ([4]; gMean, 2.5 mg once daily oral): 3.06%
AUCT,ss ([4]; gMean, 5 mg once daily oral): 158 nmol·h/L
T1/2,ss ([4]; gMean, 5 mg once daily oral): 131 h
feT,ss ([4]; gMean, 5 mg once daily oral): 6.27%
AUCT,ss ([4]; gMean, 10 mg once daily oral): 190 nmol·h/L
T1/2,ss ([4]; gMean, 10 mg once daily oral): 130 h
feT,ss ([4]; gMean, 10 mg once daily oral): 3.22%
tmax,ss* ([4]; 1 mg once daily oral): 1.48 h
tmax,ss* ([4]; 2.5 mg once daily oral): 1.42 h
tmax,ss* ([4]; 5 mg once daily oral): 1.53 h
tmax,ss* ([4]; 10 mg once daily oral): 1.34 h
Cmax ([4]; gMean, 1 mg once daily oral): 4.53 nM
Cmax ([4]; gMean, 2.5 mg once daily oral): 6.58 nM
Cmax ([4]; gMean, 5 mg once daily oral): 11.1 nM
Cmax ([4]; gMean, 10 mg once daily oral): 13.6 nM
Compound: CC#CCn1c(N2CCC[C@@H](N)C2)nc2c1c(=O)n(Cc1nc(C)c3ccccc3n1)c(=O)n2C [BI 1356]
drug-related hypoglycaemia ([1]; add-on to metformin): did not occur
incidence of AEs versus PBO ([1]; add-on to metformin): comparable
tolerability of combination treatment with MET ([1]; BI 1356 1, 5, and 10 mg and MET): well tolerated
excretion form and pathway (in vivo): primarily excreted unchanged via the bile
maximum gMean concentration after single oral administration ([2]; 5 mg single oral dose): 7.05 nM
maximum gMean concentration after single oral administration ([2]; 100 mg single oral dose): 267 nM
maximum plasma concentration of supratherapeutic dose (100 mg) relative to therapeutic dose of 5 mg ([2]; single dose): about 38 fold
reduction in FPG from baseline to Week 12 ([3]; 1 mg qd add-on to metformin): -19 mg/dL
placebo corrected mean reduction in HbA1c ([3]; 1 mg qd add-on to metformin, n=65): −0.39%
reduction in FPG from baseline to Week 12 ([3]; 5 mg qd add-on to metformin): -35 mg/dL
placebo corrected mean reduction in HbA1c ([3]; 5 mg qd add-on to metformin, n=66): −0.75%
reduction in FPG from baseline to Week 12 ([3]; 10 mg qd add-on to metformin): -30 mg/dL
placebo corrected mean reduction in HbA1c ([3]; 10 mg qd add-on to metformin, n=66): −0.73%
safety and tolerability [5]: placebo-like safety and tolerability
decrease in 2 h postprandial blood glucose excursions [6]: > 80%

Compound: CCC1=C(C)CN(C(=O)NCCc2ccc(S(=O)(=O)NC(=O)N[C@H]3CC[C@H](C)CC3)cc2)C1=O [GLIM, glimepiride, reference compound]
drug-related hypoglycaemia ([1]; add-on to metformin): 3 patients
mean PBO corrected reduction in HbA1c at Week 12 ([3]; open label, 1 to 3 mg qd add-on to metformin, n=64): −0.90%
